Experimental findings from patent US20140357666A1, “COMPOUNDS FOR INHIBITING THE INTERACTION OF BCL2 WITH BINDING PARTNERS” (NOVARTIS AG, priority 2011, published 2014) are described below.

pIC50: −log10 of the molar value.

Test [1] addresses BCL-2 binding to biotinylated BAK peptide (Homo sapiens, UniProt P10415). Description: SPR (Biacore) solution inhibition assay, BCL-2 binding to BAK peptide surface. The following applies: read-out: BCL2_SPR IC50 BAK. From the text:
(§1) The present method includes utility of a Surface plasmon resonance (SPR)-based biosensor (Biacore™, GE Healthcare, Uppsala, Sweden) to characterize BCL-2 inhibitors.
(§2) Biacore™ utilizes the phenomenon of surface plasmon resonance (SPR) to detect and measure binding interactions. In a typical Biacore experiment, one of the interacting molecules (ligand) is immobilized on a flexible dextran matrix while the interacting partner (analyte) is allowed to flow across that surface. A binding interaction results in an increase in mass on the sensor surface and a corresponding direct change in the refractive index of the medium in the vicinity of the sensor surface. Changes in refractive index or signal are recorded in resonance units (R.U.) Signal changes due to association and dissociation of complexes are monitored in a non-invasive manner, continuously and in real-time, the results of which are reported in the form of a sensorgram.
(§3) The SPR assay is configured to examine solution inhibition of BCL-2 binding to peptide derivatized sensor surfaces to generate IC50 values as a measure of inhibitor potency.
(§4) Biacore™ A100 (GE Healthcare, Uppsala, Sweden) was used to conduct all experiments reported herein. Sensor surface preparation and all interaction analyses experiments were performed at 25° C. Reagents were purchased from GE Healthcare. Running buffer containing 10 mM Hepes, pH7.4, 150 mM sodium chloride, 1.25 mM Dithiothreitol, 3% Dimethyl sulfoxide and 0.05% polysorbate 20 were utilized throughout all analyses.
(§5) Biotinylated BAK, BAD and NOXA peptides were diluted to 10 nM in running buffer and captured onto a sensor surface pre-derivatized with streptavidin (sensor chip SA) to peptide surface densities in the range 50-100 R.U. Peptide captured surfaces were blocked with 500 μM PEO2-Biotin.
(§6) Interaction analyses were performed by first equilibrating each sample within a 6 point three fold compound dilution series in the range 16 μM to […] with 56 nM BCL-2 for one hour during instrument start-up procedures. Protein compound mixtures were then injected over each peptide surface in parallel for 60 seconds at a flow-rate of 30 μL/min. 56 nM BCL-2 control samples were also prepared and run at regular intervals during the assay. Surface regeneration was performed at the end of each analysis cycle by two 30 second injections of 10 mM Glycine, pH 2.5, 1M Sodium Chloride, 0.05% polysorbate 20. Samples and control compound samples were run in duplicate and controls are also run at regular intervals during the assay to monitor surface and assay performance.
(§7) Data analyses are carried out using Biacore™ A100 evaluation software v1.1 to validate assay quality. Binding level report points were used relative to BCL-2 control samples to calculate % inhibition values for each compound protein mixture. […] The range of data shown in table 1 represents the high and low IC50 values obtained from multiple experiments.
For orientation: In SPR one partner is held on a chip, and binding of the other changes the refractive index at the surface.

Test [2] deals with BCL-2 binding to biotinylated BAD peptide (Homo sapiens, UniProt P10415). The test can be described thus: SPR (Biacore) solution inhibition assay, BCL-2 binding to BAD peptide surface. The conditions noted are these: read-out: BCL2_SPR IC50 BAD.
BCL-2 binding to biotinylated BAD peptide, sequence (P10415 whole entry): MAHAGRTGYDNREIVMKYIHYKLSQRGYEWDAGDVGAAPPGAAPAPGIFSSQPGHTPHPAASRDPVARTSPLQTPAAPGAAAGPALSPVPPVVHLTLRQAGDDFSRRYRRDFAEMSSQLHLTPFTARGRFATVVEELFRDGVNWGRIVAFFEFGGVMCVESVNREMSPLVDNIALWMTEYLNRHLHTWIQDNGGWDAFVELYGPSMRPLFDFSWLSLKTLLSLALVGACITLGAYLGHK
Description: as §1, §2, §3, §4, §5, §6, §7

BCL-2 binding to biotinylated BAK peptide, sequence (P10415 whole entry): as above

In the case of `CCCCN(CCCC)C(=O)c1cc(C)n(-c2ccc(NC(=O)Nc3c(C)cccc3CC)cc2C(=O)N2Cc3ccccc3C[C@H]2CO)n1` [Example 34], the pIC50 (as a rule, −log10 of the IC50, conventionally taken in molar units) is 6.18 to 6.20 in test [1] and 6.15 to 6.21 in test [2]. With `CCCCN(CCCC)C(=O)c1cc(C)n(-c2ccc(NC(=O)NCc3ccccc3OC)cc2C(=O)N2Cc3ccccc3C[C@H]2CO)n1` [Example 5], the negative-log IC50 (pIC50) in test [1] and in test [2] was 7.11 to 7.14 in each case. With `CCCCN(CCCC)C(=O)c1cc(C)n(-c2ccc(NC(=O)Nc3ccc(C)c(C)c3)cc2C(=O)N2Cc3ccccc3C[C@H]2CO)n1` [Example 10], the pIC50 is 6.19 to 6.20 in test [1] and 6.11 to 6.14 in test [2]. In the case of `CCCCN(CCCC)C(=O)c1cc(C)n(-c2ccc(NC(=O)Nc3ccc(SC)cc3)cc2C(=O)N2Cc3ccccc3C[C@H]2CO)n1` [Example 16], the pIC50 is 6.02 to 6.09 in test [1] and 6.01 to 6.10 in test [2]. For `CCCCN(CCCC)C(=O)c1cc(C)n(-c2ccc(NC(=O)Nc3cccs3)cc2C(=O)N2Cc3ccccc3C[C@H]2CO)n1` [Example 26] the same measures were 5.77 to 5.78 and 5.61 to 5.68. `CCCCN(CCCC)C(=O)c1cc(C)n(-c2ccc(NC(=O)Nc3cccc(OC)c3)cc2C(=O)N2Cc3ccccc3C[C@H]2CO)n1` [Example 3]: the pIC50 was 6.05 to 6.09 in test [1] and 5.99 to 6.05 in test [2]. For the molecule `CCCCN(CCCC)C(=O)c1cc(C)n(-c2ccc(NC(=O)Nc3ccccc3Oc3ccccc3)cc2C(=O)N2Cc3ccccc3C[C@H]2CO)n1` [Example 12], the pIC50 in test [1] and in test [2] was under 4.80 in each case. As to `CCCCN(CCCC)C(=O)c1cc(C)n(-c2ccc(NC(=O)Nc3ccccc3OCC)cc2C(=O)N2Cc3ccccc3C[C@H]2CO)n1` [Example 28], the pIC50 in test [1] is 6.21 to 6.26; in test [2], 6.16 to 6.29. Regarding `CCCCN(CCCC)C(=O)c1cc(C)n(-c2ccc(NC(=O)Nc3ccccc3OC)cc2C(=O)N2Cc3ccccc3C[C@H]2CO)n1` [Example 21], the pIC50 was 5.50 to 5.56 in test [1] and 5.46 to 5.58 in test [2]. For `CCCCN(CCCC)C(=O)c1cc(C)n(-c2ccc(NC(=O)NCc3ccc(Cl)cc3)cc2C(=O)N2Cc3ccccc3C[C@H]2CO)n1` [Example 8] the same measures were 6.83 to 6.85 and 6.78 to 6.81. `CCCCN(CCCC)C(=O)c1cc(C)n(-c2ccc(NC(=O)Nc3ccc(OC)cc3C)cc2C(=O)N2Cc3ccccc3C[C@H]2CO)n1` [Example 25]: the results for the pIC50 in test [1] and in test [2] were 6.75 to 6.84 and 6.59 to 6.64, respectively. On the same counts, the results for `CCCCN(CCCC)C(=O)c1cc(C)n(-c2ccc(NC(=O)N[C@@H](C)c3ccc(OC)cc3)cc2C(=O)N2Cc3ccccc3C[C@H]2CO)n1` [Example 20] are 7.09 to 7.16 and 7.12 to 7.15. For `CCCCN(CCCC)C(=O)c1cc(C)n(-c2ccc(NC(=O)Nc3ccc4ccccc4c3)cc2C(=O)N2Cc3ccccc3C[C@H]2CO)n1` [Example 29] the same measures were 5.61 to 5.74 and 5.59 to 5.61. For the molecule `CCCCN(CCCC)C(=O)c1cc(C)n(-c2ccc(NC(=O)N[C@@H](C)c3cccc(OC)c3)cc2C(=O)N2Cc3ccccc3C[C@H]2CO)n1` [Example 23], the figures for the pIC50 in test [1] and in test [2] were 7.38 to 7.43 and 7.33 to 7.34, respectively. As to `CCCCN(CCCC)C(=O)c1cc(C)n(-c2ccc(NC(=O)NCc3ccc(OC)cc3)cc2C(=O)N2Cc3ccccc3C[C@H]2CO)n1` [Example 6], the negative logarithm of the IC50 (pIC50) in test [1] was 7.05 to 7.08; in test [2], 6.93 to 6.97. As for `CCCCN(CCCC)C(=O)c1cc(C)n(-c2ccc(NC(=O)N[C@H](C)c3ccccc3)cc2C(=O)N2Cc3ccccc3C[C@H]2CO)n1` [Example 9], the pIC50 in test [1] was 6.56 to 6.60; in test [2] it was 6.45 to 6.48. For `CCCCN(CCCC)C(=O)c1cc(C)n(-c2ccc(NC(=O)Nc3ccc(-c4ccccc4)cc3)cc2C(=O)N2Cc3ccccc3C[C@H]2CO)n1` [Example 18] the same measures were 5.70 to 5.71 and 5.75 to 5.76. Turning to `CCCCN(CCCC)C(=O)c1cc(C)n(-c2ccc(NC(=O)NCCc3ccccc3)cc2C(=O)N2Cc3ccccc3C[C@H]2CO)n1` [Example 15], the pIC50 in test [2] was 6.81 to 6.82.
